In paper PMC7367873, “Dissecting the sequence determinants for dephosphorylation by the catalytic subunits of phosphatases PP1 and PP2A” (Nature Communications, 2020):
Blank lines part the entries; values can stand above or below the substance they belong to.

What was measured:
[1] = test system: GFP-14-3-3β and its binding proteins; assay: GFP-14-3-3β co-IP with LC-MS/MS label-free quantification, untreated versus PP1c-treated; parameters: species or system human
Description: (§1) HeLa Kyoto cells expressing transiently transfected pEGFP(C1)-14-3-3β or pEGFP(C1) control plasmid, were incubated with 20 nM Calyculin A (# 9902 S, Cell Signaling Technology) for 12 min. Cells were washed twice on ice with cold PBS and after addition of 500 µL lysis buffer (100 mM NaCl, 10 mM Tris, 0.1% IGEPAL, 1 mM EDTA, 1 mM EGTA, 20 nM Calyculin A, 1x cOmplete Mini protease inhibitor cocktail (Sigma), 1 mM DTT, 1 mM MnCl2) cells were scraped from plates, lysed by 10 pushes through an injection needle (21 G, BD) and the insoluble fraction was pelleted by centrifugation (10 min, 10^4 rcf, 4 °C). Supernatants were then subjected to incubation with 1 µM recombinant phosphatase or buffer for 1 h at 30 °C. Next, we subjected samples to immunoprecipitation using α-GFP nanobodies covalently coupled to agarose beads (2 h, 4 °C, obtained from the EMBL PEPcore Core Facility). Beads were then washed three times with lysis buffer and samples were eluted in 1x LDS sample buffer (Thermo Fisher Scientific) by heating to 70 °C for 10 min.
(§2) The samples were then reduced with 25 mM dithiothreitol (10 min at 70 °C) and alkylated with 55 mM chloroacetamide (room temperature, 30 min, in the dark). Proteins were run on a precast 4–12% NuPAGE gel (ThermoFisher Scientific) for about 1 cm to concentrate the sample prior to in-gel tryptic digestion, which was performed according to the standard procedures. The peptides obtained were dried to completeness and resuspended in 12 µL of buffer A (0.1% FA), and 5 µL of sample were injected per MS measurement. The experiment was carried out in three independent replicates.
(§3) The samples were analyzed by LC-MS/MS on a Dionex Ultimate 3000 nano-HPLC coupled online to a Fusion Lumos Tribrid mass spectrometer (Thermo Fisher Scientific). Peptides were delivered to a trap column (75 µm × 2 cm, packed in-house with 5 µm C18 resin; Reprosil PUR AQ, Dr. Maisch) and washed using 0.1% FA at a flow rate of 5 µL/min for 10 min. Subsequently, peptides were transferred to an analytical column (75 µm × 45 cm, packed in-house with 3 µm C18 resin; Reprosil Gold) applying a flow rate of 300 nL/min and separated using a 60 min linear gradient from 4% to 32% LC solvent B (0.1% FA, 5% DMSO in ACN) in LC solvent A (0.1% FA in 5% DMSO). The eluate from the analytical column was sprayed via a stainless steel emitter (Thermo Fisher Scientific) at a source voltage of 2.1 kV into the mass spectrometer. The transfer capillary was heated to 275 °C. The Fusion Lumos was operated in positive ionization mode and data-dependent acquisition (DDA), automatically switching between MS1 and MS2 spectrum acquisition. Full scan MS1 spectra were recorded in the Orbitrap from 360 to 1300 m/z at a resolution of 60k (automatic gain control (AGC) target value of 4e5 charges, maximum injection time (maxIT) of 50 ms). Up to 20 peptide precursors were isolated (isolation window, 1.7 m/z; maximum injection time, 25 ms; and AGC value, 1e5), fragmented by high-energy collision-induced dissociation (HCD) using 30% normalized collision energy (NCE), and analyzed at a resolution of 15k in the Orbitrap. Precursor ions that were singly charged, unassigned, or with charge states >6+ were excluded. The dynamic exclusion duration of fragmented precursor ions was 20 s.
(§4) Peptide and protein identification and LFQ were performed using MaxQuant software (version 1.6.1.0)[64] by searching the data against all canonical protein sequences as annotated in the Swissprot reference database (human proteins only, 20193 entries, downloaded 22 March 2016, internally annotated with PFAM domains) using the embedded search engine Andromeda[65]. The MaxQuant search was performed using two variable modifications; oxidation of methionine and N-terminal protein acetylation. Carbamidomethylation on cysteines was specified as a fixed modification. Trypsin (Trypsin/P) was specified as the proteolytic enzyme with up to two allowed missed cleavage sites.

GFP-14-3-3β = GFP-14-3-3β co-IP with LC-MS/MS, untreated GFP-14-3-3β versus GFP control (14-3-3 interactome); format: binding, human
Description: as §1, §2, §3, §4

[2] = pairwise comparison PP1 vs untreated
[3] = pairwise comparison untreated vs GFP
[4] = PP1 vs untreated, LFQ intensities, 3 replicates each
[5] = untreated vs GFP, LFQ intensities, 3 replicates each
[6] = PP1 vs untreated, label-free quantification
[7] = untreated vs GFP, label-free quantification
[8] = pairwise comparison PP1 vs untreated, student's t-test, 3 replicates each, LC-MS/MS label-free quantification
[9] = pairwise comparison untreated GFP-14-3-3β vs GFP, student's t-test, 3 replicates each, LC-MS/MS label-free quantification
[10] = GFP-14-3-3β co-IP LC-MS/MS, PP1 vs untreated, student's t-test, label-free quantification, 3 replicates each
[11] = GFP-14-3-3β co-IP LC-MS/MS, untreated vs GFP, student's t-test, label-free quantification, 3 replicates each
[12] = log2 difference, pairwise comparison PP1 vs untreated, label-free quantification, 3 replicates each
[13] = log2 difference, pairwise comparison untreated vs GFP, label-free quantification, 3 replicates each

Difference (log2), PP1 vs untreated [1, 2]: 0.1471 log2
Substance: HDAC2
Difference (log2), untreated vs GFP (GFP-14-3-3β; [3]): 0.5775 log2

Difference (log2), PP1 vs untreated [1, 4]: 0.3784 log2
Substance: TUBA4A
Difference (log2), untreated vs GFP (GFP-14-3-3β; [5]): -0.9346 log2

Difference (log2), PP1 vs untreated [1, 6]: 0.892 log2
Substance: SVIL
Difference (log2), untreated vs GFP (GFP-14-3-3β; [7]): -1.069 log2

Difference (log2), PP1 vs untreated [1, 8]: -4.245 log2
Substance: GAPDH
Difference (log2), untreated vs GFP (GFP-14-3-3β; [9]): 0.2696 log2

Difference (log2), PP1 vs untreated [1, 8]: -3.492 log2
Substance: SRSF1
Difference (log2), untreated vs GFP (GFP-14-3-3β; [9]): 4.313 log2

Difference (log2), PP1 vs untreated [1, 4]: 0.7235 log2
Substance: PTBP1
Difference (log2), untreated vs GFP (GFP-14-3-3β; [5]): -0.5421 log2

Difference (log2), PP1 vs untreated [1, 10]: -0.359 log2
Substance: IQGAP1
Difference (log2), untreated vs GFP (GFP-14-3-3β; [11]): 0.3872 log2

Difference (log2), PP1 vs untreated [1, 12]: 1.3958
Substance: NSUN2
Difference (log2), untreated vs GFP (GFP-14-3-3β; [13]): -0.08076

Difference (log2), PP1 vs untreated [1, 2]: 0.2022 log2
Substance: EIF4G1
Difference (log2), untreated vs GFP (GFP-14-3-3β; [3]): 0.6525 log2

Difference (log2), PP1 vs untreated [1, 12]: 1.29
Substance: PLEC
Difference (log2), untreated vs GFP (GFP-14-3-3β; [13]): -0.5388

Difference (log2), PP1 vs untreated [1, 12]: 1.3455
Substance: RFC5
Difference (log2), untreated vs GFP (GFP-14-3-3β; [13]): -0.3031

Difference (log2), PP1 vs untreated [1, 10]: -0.6263 log2
Substance: HSPA5
Difference (log2), untreated vs GFP (GFP-14-3-3β; [11]): -0.3432 log2

Difference (log2), PP1 vs untreated [1, 6]: 0.7419 log2
Substance: SSRP1
Difference (log2), untreated vs GFP (GFP-14-3-3β; [7]): 1.339 log2

Difference (log2), PP1 vs untreated [1, 10]: -0.1499 log2
Substance: PRPF8
Difference (log2), untreated vs GFP (GFP-14-3-3β; [11]): 2.212 log2

Difference (log2), PP1 vs untreated [1, 8]: -3.205 log2
Substance: PIK3C2B
Difference (log2), untreated vs GFP (GFP-14-3-3β; [9]): 5.48 log2

Difference (log2), PP1 vs untreated [1, 8]: -2.858 log2
Substance: KIAA0930
Difference (log2), untreated vs GFP (GFP-14-3-3β; [9]): 3.752 log2

Difference (log2), PP1 vs untreated [1, 2]: 0.111 log2
Substance: HERC2
Difference (log2), untreated vs GFP (GFP-14-3-3β; [3]): -0.06655 log2

Difference (log2), PP1 vs untreated [1, 6]: 0.8223 log2
Substance: CCT3
Difference (log2), untreated vs GFP (GFP-14-3-3β; [7]): 0.2505 log2

Difference (log2), PP1 vs untreated [1, 12]: 1.555
Substance: DDX60
Difference (log2), untreated vs GFP (GFP-14-3-3β; [13]): -0.05993

Difference (log2), PP1 vs untreated [1, 10]: -0.2284 log2
Substance: KIAA1671
Difference (log2), untreated vs GFP (GFP-14-3-3β; [11]): 1.934 log2

Difference (log2), PP1 vs untreated [1, 6]: 0.8008 log2
Substance: MAP7D1
Difference (log2), untreated vs GFP (GFP-14-3-3β; [7]): 0.3595 log2

Difference (log2), PP1 vs untreated [1, 10]: -0.1517 log2
Substance: EPRS
Difference (log2), untreated vs GFP (GFP-14-3-3β; [11]): -0.2032 log2

Difference (log2), PP1 vs untreated [1, 12]: 1.575
Substance: EMC1
Difference (log2), untreated vs GFP (GFP-14-3-3β; [13]): -0.5374

Difference (log2), PP1 vs untreated [1, 2]: 0.0453 log2
Substance: APC
Difference (log2), untreated vs GFP (GFP-14-3-3β; [3]): 0.7989 log2

Difference (log2), PP1 vs untreated [1, 4]: 0.4916 log2
Substance: HNRNPAB
Difference (log2), untreated vs GFP (GFP-14-3-3β; [5]): 0.1502 log2

Difference (log2), PP1 vs untreated [1, 8]: -5.178 log2
Substance: SRGAP1
Difference (log2), untreated vs GFP (GFP-14-3-3β; [9]): 5.319 log2

Difference (log2), PP1 vs untreated [1, 2]: 0.1166 log2
Substance: MKI67
Difference (log2), untreated vs GFP (GFP-14-3-3β; [3]): 1.0535 log2

Difference (log2), PP1 vs untreated [1, 6]: 1.01 log2
Substance: MCM7
Difference (log2), untreated vs GFP (GFP-14-3-3β; [7]): 0.04561 log2

Difference (log2), PP1 vs untreated [1, 6]: 0.9288 log2
Substance: G3BP1
Difference (log2), untreated vs GFP (GFP-14-3-3β; [7]): -0.3554 log2

Difference (log2), PP1 vs untreated [1, 10]: -0.2654 log2
Substance: SNRNP200
Difference (log2), untreated vs GFP (GFP-14-3-3β; [11]): 1.652 log2

Difference (log2), PP1 vs untreated [1, 10]: -0.1455 log2
Substance: HSPB1
Difference (log2), untreated vs GFP (GFP-14-3-3β; [11]): 0.3674 log2

Difference (log2), PP1 vs untreated ([1]; PP1 vs untreated, LFQ intensities, replicates 1-3): -1.711 log2
Substance: H2AFY
Difference (log2), untreated vs GFP (GFP-14-3-3β; untreated vs GFP, LFQ intensities, replicates 1-3): 1.914 log2

Difference (log2), PP1 vs untreated [1, 10]: -0.6324 log2
Substance: CAD
Difference (log2), untreated vs GFP (GFP-14-3-3β; [11]): 0.93 log2

Difference (log2), PP1 vs untreated [1, 4]: 0.3397 log2
Substance: GCN1L1
Difference (log2), untreated vs GFP (GFP-14-3-3β; [5]): 0.08 log2
